We go through 2 molecules from article PMC9079742, “Branched copolymer-stabilised nanoemulsions as new candidate oral drug delivery systems” (RSC Advances, 2018).

Converted amounts (≈) assume the structure as drawn.

The nature of data set [1]: Drug solubility in natural oils. The conditions noted are these: oil or lipid. The data set is classed as physicochemical.
The nature of data set [2]: MTT cytotoxicity assay. The class given is cell-based. The conditions noted are these: human, Caco-2 cells, aqueous/DMSO solution.
Description: The inherent cytotoxicity of the branched copolymer was evaluated using the CellTiterGlo® ATP assay whilst the stabilised nanoemulsions were studied using a 3-(4,5-dimethylthiazol-2-yl)-2,5-diphenyltetrazolium bromide (MTT) assay which employs the reduction of MTT to formazan to establish changes in mitochondrial enzyme activity (Fig. S5 ^†).
Cellular Cytotoxicity Assay
Approximately 100,000 cells per 100 L were seeded per well in a 96 well tissue culture plate, leaving
24 hours for cells to adhere to the plate. After this 24-hour period, media was aspirated from all wells
and replaced with fresh complete culture media containing appropriate sample concentrations. A
maximal drug concentration of 10 μM was used, decreasing in a 1:1 dilution series. For blank emulsion
samples were an equivalent volume of nanoemulsion was used to prepare the sample, such that the
volume of nanoemulsion was the same as those in the drug loaded nanoemulsion samples. Plates
were left for between 1 and 5 days, after which time 20 L of 5 mg/mL MTT reagent (3-(4,5-
dimethylthiazol-2-yl)-2,5-diphenyltetrazolium bromide) was added to every well and left for 2 hours. […]
formazan crystals. Plates were then read on a Tecan GENios plate reader (Tecan Group, Manndorf,
Switzerland) reader set to absorbance mode, with wavelength at 560 nm.
A short description of data set [3]: Caco-2 transcellular permeation model (transwell). The conditions noted are these: human, Caco-2; for Papp A→B at 2 h, 10 μM / Papp B→A at 2 h, 10 μM: aq/DMSO solution or castor oil nanoemulsion, N=4. The data set is classed as in vitro ADME, human. The protocol: (§1) The apparent permeability (Papp) of the candidate drug-loaded nanoemulsions were determined using the Caco-2 cells after forming a confluent monolayer, with tight junctions between the cells (confirmed by TEER), on a porous transwell membrane; this is a widely-used model for oral absorption.[34] Within this assay, the cells polarise to present microvilli on the gut (apical; A) side of the cells,[35] reproducing the morphology and function of the small intestine. The blood (basolateral; B) side of the cells models the interface with the systemic circulation. […]
(§2) droplets were below 300 nm in diameter.
(§3) During the 2 minutes, the vial was […]
(§4) to achieve a creamy emulsion. […]
(§5) Caco-2 Transcellular Permeation Model
(§6) After this time, culture media was […]
(§7) and immediately frozen at -40°C for subsequent batch analysis via HPLC. Sink conditions were determined as being satisfied when <10% of starting concentration had permeated. Papp was determined with the following equation: […]
(§8) Where A is the concentration in the sample, T is the time in seconds at which the sample was collected, V is the total volume of sample contained in the chamber being sampled, S is the initial starting concentration of the drug and 0.3 is the surface area in cm2 of the transwell insert on which the Caco-2 […]
(§9) High Performance Liquid Chromatography
(§10) 200 μL of sample (thawed from -40°C storage) was added to 1 ml of HPLC grade acetonitrile in a universal tube and vortexed for 30 seconds. The universal tubes where then centrifuged for 5 minutes at 4°C at 13,300 rpm, after which the supernatant was transferred to fresh glass tubes. These tubes were placed in a vacuum centrifuge drier and heated to 35°C to remove excess acetonitrile and dry down the sample to a pellet. Pellets were then re-suspended in 200 μL fresh 20% HPLC grade acetonitrile, 80% HPLC grade water, and transferred to 1.8 ml HPLC vials and sealed for HPLC analysis.
(§11) The mobile phase (C) consisted of 95% water and 5% acetonitrile, with 5mM final concentration of ammonium formate. The elution buffer (D) consisted of 90% acetonitrile and 10% water with no ammonium formate. A calibration curve was produced using a 1:2 dilution from 20,000 ng/ml to 39 ng/ml, with separate quality control samples at 600 ng/ml, 3000 ng/ml and 15,000 ng/ml. The initial starting conditions of each run were 100% C, changing to 92% D / 8% C after 30 seconds, holding at this percentage for 5 minutes before raising to 100% D for 1 minute. The final 2 minutes of the run returned the column to 100% of C, ready for the injection of the next sample. The EFV was eluted at around 4.3 minutes into the run. The lower limit of quantification was 78 ng/mL, with intraday variability <20% and inter day variability <15%. […]
(§12) Plates were incubated for 5 days at 37°C and 5%
(§13) CO2. Activity of both aqueous and nanoformulations against HIV-1 IIIB was determined by quantifying the amount of live cells in each condition by means of an MTT cell viability assay. Concentrations of […]
(§14) was due solely to HIV infection.

Data set [4] relates to Caco-2 monolayers. Kind of data set: Caco-2 transcellular permeation model (transwell). The data set is classed as in vitro ADME, human. The protocol: as §1, §2, §3, §4, §5, §6, §7, §8, §9, §10, §11, §12, §13, §14
Data set [5] relates to HIV-1 IIIB. The data set is described as follows: Antiviral activity assay (MTT viability of infected MT4 cells). The conditions noted are these: Human immunodeficiency virus 1, 120 h, HIV-1 IIIB-infected MT4 cells, 5 days incubation, N = 4. The data set is classed as cell-based.
Excerpt: The potential ability to enhance the oral permeability of the antiretroviral drugs LPV and EFV may lead to increased drug absorption and a subsequent decrease in oral dose required to treat HIV patients. Drug permeation through the gut model employed here provides no information about whether free drug or intact nanoemulsions have traversed the epithelium. The potential for nanoemulsions entering the systemic circulation after in vivo absorption necessitates assessment of antiviral activity of the ARV-containing droplets and this was undertaken using HIV-1 IIIB-infected MT4 cells. […] Activity against the virus was determined by using an MTT cell viability assay to assess the number of live cells as viral replication leads to cell death.
Fig. 4 Antiviral activity of aqueous (circles) and nanoemulsion (triangles) formulations containing (A) EFV; and (B) LPV after 5 days incubation with MT4 cells and HIV-1 IIIB. Viral kill was derived by using MTT assay to quantify the metabolic activity of the MT4 cells, using this a proxy of cellular viability. […] Data expressed as ± SEM, N = 4. […]
as §7

On to `O=C1Nc2ccc(Cl)cc2[C@@](C#CC2CC2)(C(F)(F)F)O1` [EFV, efavirenz], for which the solubility in data set [1] (in castor oil) is at least 50 mg/mL. Moreover, in data set [1] (in peanut oil), the solubility is at least 50 mg/mL. The solubility in data set [1] (in soybean oil) was at least 50 mg/mL. The molecule also displayed a CC50 in data set [2] of 55 µM. Moreover, in data set [3], the efflux ratio at 1 h was determined as 3.98; the efflux ratio at 2 h came to 3.11; the apparent permeability from apical to basolateral (Papp A→B) at 2 h, 10 μM is 8.21 ×10⁻⁶ cm/s; the Papp B→A at 2 h, 10 μM came to 25.5 ×10⁻⁶ cm/s. In data set [4] (Caco-2), the “Difference in permeation, emulsion form versus aqueous DMSO control” value was “very limited difference”. In addition, in data set [5], the IC50 is about 1.25 µM.
`Cc1cccc(C)c1OCC(=O)N[C@@H](Cc1ccccc1)[C@@H](O)C[C@H](Cc1ccccc1)NC(=O)[C@H](C(C)C)N1CCCNC1=O` [LPV, lopinavir] showed a solubility in data set [1] (in castor oil) of about 25 mg/mL (≈ 39.8 mM). Besides, the solubility in data set [1] (in peanut oil) was under 12 mg/mL. This molecule also showed a solubility in data set [1] (in soybean oil) of under 12 mg/mL. For the same molecule, in data set [3], the efflux ratio at 1 h was determined as 1.11; the efflux ratio at 2 h came to 4.78; the apical-to-basolateral permeability (Papp A→B) at 2 h, 10 μM is 2.7 ×10⁻⁶ cm/s; the Papp B→A at 2 h, 10 μM was determined as 12.9 ×10⁻⁶ cm/s. Also, the “Permeation in emulsion form relative to control within aqueous DMSO vehicle” value in data set [4] (human, Caco-2, 2 h, 10 μM) is on record as “approximately 10 fold”. In data set [5], the IC50 came out at 0.46 µM.
